Experiments:
citrate synthase = experiment: Activity of citrate synthase in treated T-cells; format: cell-based; conditions: prolonged, long-term treatment of pre-activated human T-cells
Experimental: (§1) Activities of the respiratory chain single enzyme complexes I and II, as well as of citrate synthase, were measured as described previously with minor modifications. Ciprofloxacin-treated cells were depleted of dead cells via Biocoll (Biochrom) gradient centrifugation. The cell number in different batches of ciprofloxacin-treated cells was equalized. For measurement of the enzymatic activities, samples were prepared as described previously with minor modifications. 4×10^7 cells were washed with PBS, shock-frozen in liquid nitrogen and thawed on ice. Next, cells were permeabilized by 15 min incubation with 1 ml of 0.015% digitonin (w/v) in respiratory chain (RC) buffer (250 mM sucrose, 50 mM KCl, 5 mM MgCl2, 20 mM Tris-HCl, pH 7.4), washed with RC buffer and centrifuged at 8 000 rpm for 5 min at 4° C. For a single data point the activity measurement was performed three times in triplicates and the average value was calculated. Steady state activity was recorded in a 96-well plate spectrophotometer using a thermostated chamber and a final volume of 300 μl. Enzymatic activities of complex I and complex II were recorded as NADH oxidation at 340-400 nm and as succinate oxidation at 610-750 nm, respectively. Citrate synthase activity was detected after two additional freeze/thaw cycles as 5,5′-dithiobis-(2-nitrobenzoic acid) (DTNB) reduction at 412 nm.

[1] = tested on: PHA-activated human T-cells; conditions: short-term (up to 96 hours) or simultaneous treatment; cited from earlier work
CD95L = CD95L gene expression, quantitative real-time SYBRGreen PCR (vs GAPDH); format: cell-based, human; conditions: T-cells from patients with atopic dermatitis, 50 μg/ml for 7 days, anti-CD3 for 1 h
Experimental: (§2) Quantitative real-time-PCR was performed using the Power SYBR Green PCR Master Mix (Applied Biosystems). Gene expression was analyzed using the 7500 Real-Time PCR Systems and Sequence Detection Software version 1.2.2 (Applied Biosystems). IL-2 and IL-4 gene expression levels were normalized using glyceraldehyde-3-phosphat dehydrogenase (GAPDH) expression levels as an endogenous reference.
(§3) Next, the cells were activated via plate-bound anti-CD3 antibody for 1 h and the gene expression levels for IL-4 (sec FIGS. 6A and 13), IL-2 (see FIGS. 6C and D) and CD95L (see FIGS. 6E and F) were assayed. […] A clear inhibition of TCR induced up-regulation of IL-4, IL-2 and CD95L was detected.

IL-4 [2] = experiment: IL-4 gene expression, quantitative real-time SYBRGreen PCR (vs GAPDH); format: cell-based, human
Experimental: as §2
(§4) The mean induction ratios were calculated.
(§5) Total cellular RNA was isolated and reverse-transcribed. Expression of IL-2 (see FIG. 4A) and IL-4 (see FIG. 4B) was analyzed using quantitative real-time SYBRGreen PCR. IL-2 and IL-4 expression levels were estimated by gene expression ratio between IL-2 or IL-4 gene and GAPDH genes.
as §5, with “5A)” for “4A)”, “5B)” for “4B)”, “genes. Data are shown as fold increase of induction of gene expression, where anti-CD3 activated cells are compared with respective unstimulated controls.” for “genes.”
as §3

[3] = tested on: complex II (succinate dehydrogenase); experiment: Activity of complex II in treated T-cells; format: cell-based; conditions: prolonged, long-term treatment of pre-activated human T-cells
Experimental: as §1

IL-2 [4] = conditions: short-term (up to 96 hours) or simultaneous treatment, PHA-activated human T-cells; cited from earlier work
IL-4 [5] = experiment: Activation-induced IL-4 secretion, ELISA; format: cell-based, human; conditions: 50 μg/ml for 7 days, anti-CD3 (30 μg/ml) and anti-CD28 (1 μg/ml) for 16 h
Experimental: IL-2 and IL-4 concentrations were measured by enzyme-linked immunosorbent (ELISA) assay (BD OptEIA Set Human IL-2/IL-4, Becton Dickinson). Resting peripheral human T-cells (“day 0” T-cells)+/−rotenone (10 μg/ml, 15 min pre-treatment) were stimulated with plate-bound anti-CD3 monoclonal antibody (30 μg/ml) and soluble anti-CD28 monoclonal antibody (1 μg/ml) for 4 h. Next, the supernatants were cleared by centrifugation and the measurements were performed according to the manufacturer's instructions.
Human peripheral blood T-cells from healthy donors or patients with atopic dermatitis were pre-activated by PHA treatment and subsequently cultured for 7 days in presence or absence of 50 μg/ml cipro. Next, T-cells were activated via plate-bound anti-CD3 antibody (30 μg/ml) and soluble anti-CD28 antibody (1 μg/ml) for 16 h. Supernatants were harvested and secreted amounts of IL-4 were measured by ELISA. […] Therefore, inhibition of IL-4 transcription is not compensated by translational or post translational mechanisms.

[6] = tested on: activation-induced ROS generation in pre-activated primary human T-cells; experiment: Activation-induced ROS generation, H2DCF-DA staining and FACS; format: cell-based; conditions: PHA-pre-activated T-cells, 7 days of Cipro treatment, plate-bound anti-CD3 (30 μg/ml), 1 h after activation
Experimental: Cells were stained with H2DCF-DA (5 μM) for 30 min. Next, cells were then divided and stimulated with either plate-bound anti-CD3 antibody (30 μg/ml) or PMA (10 ng/ml). Treatment was terminated by ice-cold PBS and ROS generation was determined by FACS analysis. If not stated otherwise, ROS generation was quantified as the increase in mean fluorescence intensity (MFI), calculated according to the following formula: increase in
MFI(%)=[(MFIstimulated−MFIunstimulated)/MFIunstimulated]×100 9.
After PHA-pre-activated and 7 days of Cipro treatment, T-cells were stained with redox sensitive fluorescent probe H2DCF-DA (20 min, 37° C.) and subsequently activated via plate-bound agonistic anti-CD3 antibody (30 μg/ml). The level of activation-induced ROS was assessed by FACS measurement 1 h after activation and calculated as percentage increase in MFI (untreated control set to 100%).

[7] = tested on: mitochondrial respiratory complex I (NADH-quinone oxidoreductase); experiment: Activity of mitochondrial respiratory complex I in treated T-cells, real-time spectrophotometry; format: cell-based, human; conditions: PHA-pre-activated T-cells treated 7 days; 15 min, 20° C.; normalized to total protein content; three donors
Experimental: as §1, with “Next, cells were permeabilized by 15 min incubation with 1 ml of 0.015% digitonin (w/v) in respiratory chain (RC) buffer (250 mM sucrose, 50 mM KCl, 5 mM MgCl2, 20 mM Tris-HCl, pH 7.4), washed with RC buffer and centrifuged at 8 000 rpm for 5 min at 4° C.” left out
PHA-pre-activated and treated T-cells (see Example 2.1) were shock-frozen in liquid nitrogen. Next, activity of mitochondrial respiratory complex I (NADH-quinone oxidoreductase) was measured by real-time spectrophotometry. […]

IL-2 [8] = experiment: IL-2 gene expression, quantitative real-time SYBRGreen PCR (vs GAPDH); format: cell-based, human
Experimental: as §2, §4, §5
Total cellular RNA was isolated and reverse-transcribed. Expression of IL-2 (see FIG. 5A) and IL-4 (see FIG. 5B) was analyzed using quantitative real-time SYBRGreen PCR. IL-2 and IL-4 expression levels were estimated by gene expression ratio between IL-2 or IL-4 gene and GAPDH genes. […]
as §3

[9] = PHA-pre-activated primary human T-cells, different amounts of ciprofloxacin for 7 days, not restimulated
[10] = T-cells from patients with atopic dermatitis, 50 μg/ml for 7 days, anti-CD3 for 1 h

Q: Which results are given for `O=C(O)c1cn(C2CC2)c2cc(N3CCNCC3)c(F)cc2c1=O` [ciprofloxacin, 1-cyclopropyl-6-fluoro-1,4-dihydro-4-oxo-7-(1-piperazinyl)-3-quinoline-carboxylic acid]?
A: activity of citrate synthase (citrate synthase): unaffected; proliferation of PHA-activated human T-cells [1]: enhanced; anti-CD3-induced increase in CD95L transcripts levels (CD95L): clearly blocked; basal IL-4 levels, treated PHA-pre-activated T cells vs "day 0" T cells (IL-4 [2]; 5 healthy donors, 50 μg/ml for 7 days, P<0.05 (0.03125)): significant down-regulation; basal IL-4 levels, treated PHA-pre-activated T cells vs "day 0" T cells (IL-4 [2]; 7 patients with atopic dermatitis, 50 μg/ml for 7 days, P<0.01 (0.00781)): significant down-regulation; basal IL-4 expression (IL-4 [2]; [9]): increases basal IL-2 and IL-4 expression slightly; anti-CD3-induced increase in IL-4 transcripts levels (IL-4 [2]; [10]): clearly blocked; activity of complex II (succinate dehydrogenase) [3]: unaffected; IL-2 secretion (IL-2 [4]): enhanced; CD3/CD28 triggering-induced IL-4 secretion (IL-4 [5]; T-cells from healthy donors): blocked; CD3/CD28 triggering-induced IL-4 secretion (IL-4 [5]; T-cells from patients with atopic dermatitis): blocked; activation-induced ROS generation [6]: blocks; activity of mitochondrial respiratory complex I [7]: impaired activity; basal IL-2 expression (IL-2 [8]; [9]): increases basal IL-2 and IL-4 expression slightly; anti-CD3-induced increase in IL-2 transcripts levels (IL-2 [8]; [10]): clearly blocked
